This test concerns the target T1, N-type calcium channel (NTCC) (Homo sapiens, UniProt Q00975).
T1 construct: host or cells: IMR32 cells differentiated with dibutyryl cAMP and bromodeoxyuridine
Description: FLIPR calcium mobilization assay for N-type calcium channel. To be noted: calcium mobilization in vitro assay; differentiated IMR32 cells. The format is cell-based. On the procedure:
Unless noted otherwise, cell culture reagents were purchased from Mediatech of Herndon, Md. IMR32 cells (American Type Culture Collection, ATCC, Manassas, Va.) were routinely cultured in growth medium consisting of minimum essential medium containing 10% fetal bovine serum (FBS, Hyclone, Logan, Utah), 100 U/mL penicillin, 100 μg/mL streptomycin, 2 mM L-glutamine, 1 mM sodium pyruvate, and 1× MEM non-essential amino acids. 80-90% confluent flasks of cells were differentiated using the following differentiation medium: Growth medium plus 1 mM dibutyryl cyclic AMP (Sigma, St. Louis, Mo.), and 2.5 μM bromodeoxyuridine (Sigma). Cells were differentiated for 8 days by replacing differentiation medium every 2-3 days.
FLIPR Calcium Mobilization Assay for N-Type Calcium Channel.
One day prior to performing this assay, differentiated IMR32 cells were treated with 1× CellStripper, and seeded on poly-D-lysine-coated 96-well clear-bottom black plates (Becton Dickinson, Franklin Lakes, N.J.) at 200,000 cells/well. On the day of the assay, the cell plates were washed with IMR32 buffer (127 mM NaCl, 1 mM KCl, 2 mM MgCl2, 700 μM NaH2PO4, 5 mM CaCl2, 5 mM NaHCO3, 8 mM HEPES, 10 mM glucose, pH 7.4), then pre-stimulated with KCl and loaded as follows: 0.05 mL of IMR32 buffer, 0.05 mL of each compound tested diluted in IMR32 buffer containing 20 μM nitrendipine (Sigma), and 0.1 mL KCl dissolved in IMR32 buffer, plus Fluo-4 were added (3 μM final concentration, Molecular Probes, Eugene, Oreg.). Final test compound concentrations ranged from about 846 pM to about 17 μM, final nitrendipine concentration was 5 μM, and final KCl concentration was 90 mM. After 1 hour, the cells were washed twice with 0.05 mL of each compound is tested in nitrendipine-containing IMR32 buffer (no KCl or Fluo-4), and then replaced with 0.1 mL of each compound tested in nitrendipine-containing IMR32 buffer. Plates were then transferred to a Fluorimetric Imaging Plate Reader (FLIPR^96, Molecular Devices, Inc., Sunnyvale, Calif.) for assay. The FLIPR measured basal Fluo-4 fluorescence for 315 seconds (i.e., 5 minutes and 15 seconds), then added 0.1 mL KCl agonist dissolved in IMR32 buffer and measured fluorescence for another 45 seconds. Final test compound concentrations on the cells after FLIPR read ranged from about 846 pM to about 17 μM, final nitrendipine concentration was 5 μM, and final KCl concentration was 90 mM. Data were collected over the entire time course and analyzed using Excel, Graph Pad Prism (version 3.02, Graph Pad, San Diego, Calif.), or an in-house non-linear regression analysis software.
In general terms: A change in cytosolic calcium serves as a functional read-out for many receptors and channels.

The results in this text go back to US8791264B2 (Purdue Pharma L.P., priority 2006, dated 2014).

In general, IC50 refers to the concentration needed to halve the response being measured.

T1 sequence (Q00975 whole entry): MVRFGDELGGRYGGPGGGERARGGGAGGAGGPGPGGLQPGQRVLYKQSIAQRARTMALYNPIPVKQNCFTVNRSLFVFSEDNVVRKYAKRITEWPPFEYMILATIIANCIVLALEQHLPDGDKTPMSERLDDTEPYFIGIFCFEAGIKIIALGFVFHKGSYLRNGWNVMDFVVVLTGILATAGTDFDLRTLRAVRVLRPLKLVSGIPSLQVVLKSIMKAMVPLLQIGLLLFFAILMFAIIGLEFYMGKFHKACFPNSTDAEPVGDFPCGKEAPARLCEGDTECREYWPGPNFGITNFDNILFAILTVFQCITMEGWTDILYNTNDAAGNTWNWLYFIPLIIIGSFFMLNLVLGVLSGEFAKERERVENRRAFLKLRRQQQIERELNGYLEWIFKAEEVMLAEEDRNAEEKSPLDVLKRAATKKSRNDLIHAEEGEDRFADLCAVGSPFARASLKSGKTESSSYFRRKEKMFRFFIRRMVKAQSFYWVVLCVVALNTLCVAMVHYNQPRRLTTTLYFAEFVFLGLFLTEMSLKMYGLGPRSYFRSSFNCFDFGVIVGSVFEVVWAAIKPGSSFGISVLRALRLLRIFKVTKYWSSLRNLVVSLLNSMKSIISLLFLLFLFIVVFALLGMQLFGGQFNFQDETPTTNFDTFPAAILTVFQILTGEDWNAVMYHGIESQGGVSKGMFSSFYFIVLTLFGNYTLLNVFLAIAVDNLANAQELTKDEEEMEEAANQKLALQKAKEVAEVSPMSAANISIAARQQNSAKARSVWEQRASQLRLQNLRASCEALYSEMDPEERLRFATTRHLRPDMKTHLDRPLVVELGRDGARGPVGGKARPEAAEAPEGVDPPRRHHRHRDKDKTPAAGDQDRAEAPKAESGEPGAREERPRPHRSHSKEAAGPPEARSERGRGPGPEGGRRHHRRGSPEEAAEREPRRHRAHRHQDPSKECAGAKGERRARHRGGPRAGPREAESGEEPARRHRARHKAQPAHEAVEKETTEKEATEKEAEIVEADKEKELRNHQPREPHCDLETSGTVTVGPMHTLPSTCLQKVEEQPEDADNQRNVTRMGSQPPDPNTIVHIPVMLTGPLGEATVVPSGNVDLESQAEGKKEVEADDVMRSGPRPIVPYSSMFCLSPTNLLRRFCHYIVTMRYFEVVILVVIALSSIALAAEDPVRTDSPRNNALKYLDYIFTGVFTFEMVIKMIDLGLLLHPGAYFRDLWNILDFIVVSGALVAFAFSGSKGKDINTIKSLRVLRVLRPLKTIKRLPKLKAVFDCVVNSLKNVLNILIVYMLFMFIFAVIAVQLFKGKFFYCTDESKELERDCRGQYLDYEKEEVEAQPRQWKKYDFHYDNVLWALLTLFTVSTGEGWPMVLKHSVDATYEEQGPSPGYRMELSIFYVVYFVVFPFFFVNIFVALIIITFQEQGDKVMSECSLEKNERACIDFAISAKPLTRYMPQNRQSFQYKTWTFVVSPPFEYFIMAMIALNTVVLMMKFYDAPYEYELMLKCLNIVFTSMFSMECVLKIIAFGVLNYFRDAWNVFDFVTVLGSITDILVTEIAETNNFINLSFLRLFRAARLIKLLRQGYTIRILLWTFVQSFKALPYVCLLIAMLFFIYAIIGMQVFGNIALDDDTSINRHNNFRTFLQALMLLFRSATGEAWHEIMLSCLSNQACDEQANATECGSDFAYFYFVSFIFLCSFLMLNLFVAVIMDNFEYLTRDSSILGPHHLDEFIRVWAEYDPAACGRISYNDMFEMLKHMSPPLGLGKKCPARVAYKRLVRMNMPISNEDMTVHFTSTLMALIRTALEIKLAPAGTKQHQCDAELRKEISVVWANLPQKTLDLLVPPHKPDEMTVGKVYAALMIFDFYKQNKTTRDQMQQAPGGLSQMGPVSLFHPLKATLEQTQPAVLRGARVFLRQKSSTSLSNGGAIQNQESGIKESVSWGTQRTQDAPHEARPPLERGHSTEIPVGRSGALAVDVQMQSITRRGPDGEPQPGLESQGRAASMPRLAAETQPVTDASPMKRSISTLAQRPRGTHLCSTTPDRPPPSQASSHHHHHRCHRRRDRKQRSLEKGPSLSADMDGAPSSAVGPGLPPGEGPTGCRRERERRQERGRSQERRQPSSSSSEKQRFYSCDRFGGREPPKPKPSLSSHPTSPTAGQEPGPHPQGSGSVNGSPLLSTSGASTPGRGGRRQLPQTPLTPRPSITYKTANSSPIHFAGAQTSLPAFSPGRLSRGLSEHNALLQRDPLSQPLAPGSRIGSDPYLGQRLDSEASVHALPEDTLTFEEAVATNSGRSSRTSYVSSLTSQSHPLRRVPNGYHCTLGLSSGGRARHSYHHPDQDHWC
T1 sequence (P54289 25-956 partner limits assumed): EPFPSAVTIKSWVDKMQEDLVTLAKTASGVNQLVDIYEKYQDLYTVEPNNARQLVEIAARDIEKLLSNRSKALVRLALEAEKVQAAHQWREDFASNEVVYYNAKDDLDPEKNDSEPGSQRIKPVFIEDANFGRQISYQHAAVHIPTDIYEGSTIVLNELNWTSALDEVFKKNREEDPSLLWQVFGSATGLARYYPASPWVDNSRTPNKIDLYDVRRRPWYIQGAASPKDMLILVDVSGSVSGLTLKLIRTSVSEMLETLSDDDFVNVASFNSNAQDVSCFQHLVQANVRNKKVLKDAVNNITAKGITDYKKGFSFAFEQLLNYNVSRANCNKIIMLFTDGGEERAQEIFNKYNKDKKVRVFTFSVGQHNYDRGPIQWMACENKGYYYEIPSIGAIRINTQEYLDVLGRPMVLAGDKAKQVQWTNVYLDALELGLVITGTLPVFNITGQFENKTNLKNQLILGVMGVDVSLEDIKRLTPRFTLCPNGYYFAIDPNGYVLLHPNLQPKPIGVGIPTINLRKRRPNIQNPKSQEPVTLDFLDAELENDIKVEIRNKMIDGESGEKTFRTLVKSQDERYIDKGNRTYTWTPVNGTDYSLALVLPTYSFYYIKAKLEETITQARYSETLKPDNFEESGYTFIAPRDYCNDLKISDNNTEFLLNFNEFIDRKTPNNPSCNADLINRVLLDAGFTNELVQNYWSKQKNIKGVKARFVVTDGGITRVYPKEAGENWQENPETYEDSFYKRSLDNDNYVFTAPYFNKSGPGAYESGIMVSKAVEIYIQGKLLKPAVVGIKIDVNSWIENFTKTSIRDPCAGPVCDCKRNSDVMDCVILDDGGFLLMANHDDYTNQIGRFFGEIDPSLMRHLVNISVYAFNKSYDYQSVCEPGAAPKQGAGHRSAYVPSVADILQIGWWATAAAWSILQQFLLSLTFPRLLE
T1 sequence (P54289 957-1103 partner limits assumed): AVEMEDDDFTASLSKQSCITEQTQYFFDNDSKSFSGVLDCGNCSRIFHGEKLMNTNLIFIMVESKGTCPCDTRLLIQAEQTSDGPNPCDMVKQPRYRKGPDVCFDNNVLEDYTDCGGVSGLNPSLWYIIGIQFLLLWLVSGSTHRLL
T1 sequence (P54284 whole entry partner): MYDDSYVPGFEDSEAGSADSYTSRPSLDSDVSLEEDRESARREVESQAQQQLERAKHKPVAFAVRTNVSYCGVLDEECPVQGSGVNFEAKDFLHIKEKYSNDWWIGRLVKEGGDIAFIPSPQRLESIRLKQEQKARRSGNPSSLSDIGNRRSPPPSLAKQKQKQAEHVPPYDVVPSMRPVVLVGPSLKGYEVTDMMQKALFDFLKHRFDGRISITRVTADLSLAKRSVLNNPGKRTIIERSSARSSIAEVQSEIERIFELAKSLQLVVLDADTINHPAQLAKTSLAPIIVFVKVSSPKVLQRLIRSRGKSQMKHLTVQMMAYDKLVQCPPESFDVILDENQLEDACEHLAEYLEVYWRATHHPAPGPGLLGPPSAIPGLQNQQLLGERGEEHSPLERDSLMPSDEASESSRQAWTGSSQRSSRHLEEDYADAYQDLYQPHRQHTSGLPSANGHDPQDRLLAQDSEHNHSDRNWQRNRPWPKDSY

With `CC(NCCCn1ccnc1)C(=O)N1CCC(N(C(C)C)S(=O)(=O)c2cccc(C(F)(F)F)c2)CC1` (stereo not shown) [Compound 90, N-{1-[2-(3-Imidazol-1-yl-propylamino)propionyl]-piperidin-4-yl}-N-isopropyl-3-trifluoromethylbenzenesulfonamide], the IC50 came out at 9560 nM.
As for `CCC(NCc1ccccc1)C(=O)N1CCC(N(C(C)C)S(=O)(=O)c2cccc(C(F)(F)F)c2)CC1` (stereo not shown) [Compound 91, N-[1-(2-Benzylaminobutyryl)-piperidin-4-yl]-N-isopropyl-3-trifluoromethylbenzenesulfonamide], the IC50 amounted to 1150 nM.
Turning to `CCC(NC1CC1)C(=O)N1CCC(N(C(C)C)S(=O)(=O)c2cccc(C(F)(F)F)c2)CC1` (stereo not shown) [Compound 92, N-[1-(2-Cyclopropylaminobutyryl)-piperidin-4-yl]-N-isopropyl-3-trifluoromethylbenzenesulfonamide], the IC50 amounted to 5270 nM.
Turning to `COCCNCC(=O)N1CCC(N(C(C)C)S(=O)(=O)c2cccc(C(F)(F)F)c2)CC1` [Compound 95, N-Isopropyl-N-{1-[2-(2-methoxy-ethylamino)acetyl]-piperidin-4-yl}-3-trifluoromethylbenzenesulfonamide], the IC50 turned out to be 2240 nM.
On to `COc1ccc(CNCC(=O)N2CCC(N(C3CC3)S(=O)(=O)c3ccccc3)CC2)cc1` [Compound 97, N-Cyclopropyl-N-{1-[2-(4-methoxy-benzylamino)acetyl]-piperidin-4-yl}-benzenesulfonamide], for which the IC50 came out at 2360 nM.
With `O=C(CNCc1ccc(F)cc1)N1CCC(N(C2CC2)S(=O)(=O)c2ccccc2)CC1` [Compound 98, N-Cyclopropyl-N-{1-[2-(4-fluorobenzylamino)acetyl]-piperidin-4-yl}-benzenesulfonamide] the figure was 2670 nM; with `CC(C)CNC(=O)CCN1CCC(N(C(C)C)S(=O)(=O)c2cccc(C(F)(F)F)c2)CC1` [Compound 107c, N-Isobutyl-3-{4-[isopropyl-(3-trifluoromethylbenzenesulfonyl)amino]-piperidin-1-yl}-propionamide], 2000 nM.
Take `NCCN1CCC(N(C2CC2)S(=O)(=O)c2cccc(C(F)(F)F)c2)CC1` [Compound 114, N-[1-(2-Aminoethyl)-piperidin-4-yl]-N-cyclopropyl-3-trifluoromethylbenzenesulfonamide]: the IC50 was 1490 nM.
As for `O=C(CC(=O)N1CCC(NS(=O)(=O)c2cccc(C(F)(F)F)c2)CC1)Nc1ccc(F)cc1F` [Compound 115, N-(2,4-Difluorophenyl)-3-oxo-3-[4-(3-trifluoromethylbenzenesulfonylamino)-piperidin-1-yl]-propionamide], the IC50 was 3180 nM.
In the case of `O=C(CN1CCC(NS(=O)(=O)c2cccc(C(F)(F)F)c2)CC1)Nc1ccc(F)cc1` [Compound 116, N-(4-Fluorophenyl)-2-[4-(3-trifluoromethylbenzenesulfonylamino)-piperidin-1-yl]-acetamide], the IC50 worked out at 1240 nM.
For the molecule `O=C(CN1CCC(NS(=O)(=O)c2cccc(C(F)(F)F)c2)CC1)Nc1ccc(C(F)(F)F)c(C(F)(F)F)c1` [N-(3,4-bis-trifluoromethylphenyl)-2-{4-[(3-trifluoromethylbenzenesulfonyl)amino]-piperidin-1-yl}-acetamide], the IC50 amounted to 1220 nM.
The same measure for `CC(C)N(C1CCN(C(=O)C(C)(C)N)CC1)S(=O)(=O)c1cccc(C(F)(F)F)c1` [N-[1-(2-amino-2-methyl-propionyl)-piperidin-4-yl]-N-isopropyl-3-trifluoromethylbenzenesulfonamide]: 9390 nM; for `CC(C)N(C1CCN(C(=O)C(N)Cc2csc3ccccc23)CC1)S(=O)(=O)c1cccc(C(F)(F)F)c1` (stereo not shown) [N-[1-(2-amino-3-benzo[b]thiophen-3-yl-propionyl)-piperidin-4-yl]-N-isopropyl-3-trifluoromethyl-benzenesulfonamide]: 470 nM; for `CC(C)N(C1CCN(C(=O)C(N)Cc2cccc3ccccc23)CC1)S(=O)(=O)c1cccc(C(F)(F)F)c1` (stereo not shown) [N-[1-(2-amino-3-naphthalen-1-yl-propionyl)-piperidin-4-yl]-N-isopropyl-3-trifluoromethyl-benzenesulfonamide]: 2550 nM.
In the case of `C=CCC(N)C(=O)N1CCC(N(C(C)C)S(=O)(=O)c2cccc(C(F)(F)F)c2)CC1` (stereo not shown) [N-[1-(2-amino-pent-4-enoyl)-piperidin-4-yl]-N-isopropyl-3-trifluoromethyl-benzenesulfonamide], the IC50 was 2940 nM.
With `C#CCC(N)C(=O)N1CCC(N(C(C)C)S(=O)(=O)c2cccc(C(F)(F)F)c2)CC1` (stereo not shown) [N-[1-(2-amino-pent-4-ynoyl)-piperidin-4-yl]-N-isopropyl-3-trifluoromethyl-benzenesulfonamide] the figure was 5960 nM.
The same measure for `CC(C)N(C1CCN(C(=O)CC(N)c2cccs2)CC1)S(=O)(=O)c1cccc(C(F)(F)F)c1` (stereo not shown) [N-[1-(3-amino-3-thiophen-2-yl-propionyl)-piperidin-4-yl]-N-isopropyl-3-trifluoromethyl-benzenesulfonamide]: 1100 nM; for `CC(C)N(C1CCN(C(=O)C2(N)CCOCC2)CC1)S(=O)(=O)c1cccc(C(F)(F)F)c1` [N-[1-(4-amino-tetrahydro-pyran-4-carbonyl)-piperidin-4-yl]-N-isopropyl-3-trifluoromethyl-benzenesulfonamide]: 8330 nM.
With `CC(C)N(C1CCN(C(=O)C2CNC2)CC1)S(=O)(=O)c1cccc(C(F)(F)F)c1` [N-[1-(azetidine-3-carbonyl)-piperidin-4-yl]-N-isopropyl-3-trifluoromethyl-benzenesulfonamide] the figure was 2910 nM; with `COc1ccc(NCCC(=O)N2CCC(N(C(C)C)S(=O)(=O)c3cccc(C(F)(F)F)c3)CC2)cc1` [N-isopropyl-N-{1-[3-(4-methoxy-phenylamino)-propionyl]-piperidin-4-yl}-3-trifluoromethyl-benzenesulfonamide], 1000 nM.
With `CC(C)N(C1CCN(C(=O)CCNc2cccc(F)c2)CC1)S(=O)(=O)c1cccc(C(F)(F)F)c1` [N-{1-[3-(3-fluoro-phenylamino)-propionyl]-piperidin-4-yl}-N-isopropyl-3-trifluoromethyl-benzenesulfonamide], the IC50 stood at 1040 nM.
For `CC(C)N(C1CCN(C(=O)CCNc2ccc(C#N)cc2)CC1)S(=O)(=O)c1cccc(C(F)(F)F)c1` [N-{1-[3-(4-cyano-phenylamino)-propionyl]-piperidin-4-yl}-N-isopropyl-3-trifluoromethyl-benzenesulfonamide], the IC50 was found to be 1390 nM.
